# Tested on: human hair follicle dermal papilla cells (hFDPC)
# Test: Human follicle dermal papilla cells (hFDPC) proliferation assay
# Assay type: cell-based
# Settings: hFDPCs supplemented with BIO, BMP-2 and FGFβ
# Description: In Table 8, A represents less than 20% of increased proliferation of hFDPCs, B represents 20-40%, and C represents larger than 40% of increased proliferation of hFDPCs.
row,SMILES,Percent Increase Proliferation of hFDPCs (%)
1,"COc1ccc(N2CCN(C(=O)c3cc(-c4cccs4)nc4ccccc34)CC2)cc1 [III-1, Methanone, [4-(4-methoxyphenyl)-1-piperazinyl][2-(2-thienyl)-4-quinolinyl]-]",A (A represents less than 20% of increased proliferation of hFDPCs)
2,"C=CCc1cc(/C=C2\C(=O)NC(=O)N(c3cc(C)cc(C)c3)C2=O)cc(OC)c1O [I-3, 2,4,6(1H,3H,5H)-Pyrimidinetrione, 1-(3,5-dimethylphenyl)-5-[[4-hydroxy-3-methoxy-5-(2-propen-1-yl)phenyl]methylene]-]",A (A represents less than 20% of increased proliferation of hFDPCs)
3,"O=C(O)CC1SC(NN=Cc2ccc(OS(=O)(=O)c3ccc([N+](=O)[O-])cc3)cc2)=NC1=O (stereo not drawn) [VI-6, 5-Thiazoleacetic acid, 4,5-dihydro-2-[2-[[4-[[(4-nitrophenyl)sulfonyl]oxy]phenyl]methylene] hydrazinyl]-4-oxo-]",A (A represents less than 20% of increased proliferation of hFDPCs)
4,"Cc1ccc(OCC(=O)N2CCN(c3nnc(-c4ccc(C)cc4)c4ccccc34)CC2)cc1 [II-5, Ethanone, 2-(4-methylphenoxy)-1-[4-[4-(4-methylphenyl)-1-phthalazinyl]-1-piperazinyl]-]",B (B represents 20-40%)
5,"NC(=O)c1ccc(NC(=O)CCCc2nc(-c3ccccc3)no2)cc1 [VII-5, 1,2,4-Oxadiazole-5-butanamide, N-[4-(aminocarbonyl)phenyl]-3-phenyl-]",A (A represents less than 20% of increased proliferation of hFDPCs)
6,"CCOC(=O)c1cnn(-c2ccc(C(=O)Nc3ccc(S(=O)(=O)CC)cc3)cc2)c1C [VII-7, 1H-Pyrazole-4-carboxylic acid, 1-[4-[[[4-(ethylsulfonyl)phenyl]amino]carbonyl]phenyl]-5-methyl-, ethyl ester]",B (B represents 20-40%)
7,"C=CCc1cc(C=C2C(=O)NC(=S)NC2=O)cc(OC)c1O [I-9, 4,6(1H,5H)-Pyrimidinedione, dihydro-5-[[4-hydroxy-3-methoxy-5-(2-propen-1-yl)phenyl]methylene]-2-thioxo-]",B (B represents 20-40%)
8,"O=C1CNCc2[nH]c3ccccc3c2N1c1ccccc1 [VII-10, 1,4-Diazepino[6,5-b] indol-2(1H)-one, 3,4,5,6-tetrahydro-1-phenyl-]",B (B represents 20-40%)
9,"COc1ccc(S(=O)(=O)N2CCC(C(=O)N3CCN(Cc4ccc5c(c4)OCO5)CC3)CC2)cc1C [VI-3, Methanone, [4-(1,3-benzodioxol-5-ylmethyl)-1-piperazinyl][1-[(4-methoxy-3-methylphenyl)sulfonyl]-4-piperidinyl]-]",B (B represents 20-40%)
10,"CCC(C)Cc1c(C)sc2[nH]c(SCc3cc(=O)oc4cc(O)ccc34)nc(=O)c12 (stereo not drawn) [IV-4, Thieno[2,3-d] pyrimidin-4(1H)-one, 2-[[(7-hydroxy-2-oxo-2H-1-benzopyran-4-yl)methyl]thio]-6-methyl-5-(2-methylbutyl)-]",A (A represents less than 20% of increased proliferation of hFDPCs)
11,"COc1cc([N+](=O)[O-])cc(/C=C2\C(=O)NC(=O)N(C)C2=O)c1O [I-15, 2,4,6(1H,3H,5H)-Pyrimidinetrione, 5-[(2-hydroxy-3-methoxy-5-nitrophenyl)methylene]-1-methyl-]",B (B represents 20-40%)
12,"CCCC(=O)N1CCN(c2nnc(-c3ccc(C)cc3)c3ccccc23)CC1 [II-6, 1-Butanone, 1-[4-[4-(4-methylphenyl)-1-phthalazinyl]-1-piperazinyl]-]",B (B represents 20-40%)

# Reference: patent US12251459B2, “Compositions, formulations, and methods for hair treatment” (Oddity Labs, LLC, priority 2022, dated 2025)
